Our source for the IC50 values is PMC10037152 (Plant Biotechnology Journal, 2023).

In one test the target is PL^pro of SARS-CoV-2 (Severe acute respiratory syndrome coronavirus 2, UniProt P0DTD1). Kind of test: Inhibition activity against PLpro by fluorescence resonance energy transfer. The format is biochemical. To be noted: read-out: IC50 against PL^pro; n = 3.
Another test addresses 3CL^pro of SARS-CoV-2 (Severe acute respiratory syndrome coronavirus 2, UniProt P0DTD1). Nature of the test: Inhibition activity against 3CLpro by fluorescence resonance energy transfer. Particulars: read-out: IC50 against 3CL^pro; n = 3. The format is biochemical.

For `CC1(C)CC[C@]2(C(=O)O)CC[C@]3(C)C(=CC[C@@H]4[C@@]5(C)CC[C@H](O[C@@H]6O[C@H](CO)[C@@H](O)[C@H](O)[C@H]6O)C(C)(C)C5CC[C@]43C)[C@H]2C1` (some centres unmarked) [Compound 34, oleanolic acid‐3‐O‐glucoside], the figures for the IC50 on PL^pro of SARS-CoV-2 and on 3CL^pro of SARS-CoV-2 were 7.57 µM and 5.95 µM, respectively.
